Assay: Sensory evaluation of the MSG-IMP umami composition combined with Formulas II and III by a trained sensory panel
Conditions: for Flavor Profile: trained sensory panel; for Effect on umami flavor of the MSG-IMP mixture (summary statement): combined with MSG-IMP mixture, all tested concentrations
Excerpt: The MSG-IMP mixture (0.01% MSG and 0.005% IMP), an umami composition, was combined with Formulas II and III at different concentrations and evaluated by a trained sensory panel.

[1] = Formula concentration 1 ppm in MSG-IMP mixture (0.01% MSG and 0.005% IMP)
[2] = Formula concentration 500 ppb in MSG-IMP mixture (0.01% MSG and 0.005% IMP)

SMILES | Flavor Profile [1] | Flavor Profile (Formula concentration 5 ppm in MSG-IMP mixture (0.01% MSG and 0.005% IMP)) | Flavor Profile [2] | Effect on umami flavor of the MSG-IMP mixture (summary statement)
C#CC#CCC/C=C/C(=O)NCC(C)CC (stereo not shown) [Formula II, (E)-N-(2-methylbutyl)nona-2-en-6,8-diynamide] | Increased umami flavor and less greasy | Strong umami enhancement | Increased mouth-feel, savory | enhanced the umami flavor
C#CC#CCC/C=C\C(=O)NCC(C)CC (stereo not shown) [Formula III, (Z)-N-(2-methylbutyl)nona-2-en-6,8-diynamide] | Increased mouthfullness, delocalized |  | Increased mouthfullness, delocalized | enhanced the umami flavor

— patent US20130011345A1, “FLAVOR-ENHANCING AMIDE COMPOUNDS” (priority 2011, published 2013)
